The text below walks through data of US20170128412A1, “SYSTEM AND METHOD FOR IMPROVED BLOOD CIRCULATION AND MAINTAINING MITOCHONDRIAL ENERGY PRODUCTION” (priority 2015, published 2017).

The nature of test [1]: DPPH radical removal ability. The class given is biochemical. As to conditions: for IC50: DPPH radical removal. On the procedure:
Chart 3 indicates the diphenylpicrylhydrazl (DPPH) radical removal ability of torolox, tocotrienol, α-tocopherol, and coenzyme Q10. The reaction composition was carried out in a DPPH solution comprising 8 mg DPPH per 100 ml of 50% ethanol. The total reaction composition comprised 0.2 ml of the specimen (torolox, tocotrienol, α-tocopherol, or coenzyme Q10) and 1.8 ml of the aforementioned DPPH solution. The total reaction composition reacted at room temperature in a dark place for 30 minutes. The absorbance measurement was carried out at 517 nm.
A general note: The DPPH test is a chemical assay of radical scavenging.

Test [2] is described as follows: Linoleate peroxidative reaction inhibition (AAPH, linoleate micellar solution). The class given is biochemical. As to conditions: for inhibition rate for linoleate hydroperoxide generation: as stated in the description ("Studies indicate"); for Inhibition rate (%): specimen 25 μM. On the procedure:
Chart 4 indicates the linoleate peroxidative reaction inhibition action of tocotrienol, a-tocopherol, and Coenzyme Q10. The linoleate micellar solution comprised 300mM linoleate, 5 mM 2,2′-Azobis(2-amidinopropane) dihydrochloride (AAPH), and a specimen (tocotrienol, α-tocopherol, or Coenzyme Q10) dissolved in 0.3% Lubrol Px—20 mM sodium phosphate buffer (pH 7.4). The reaction composition reacted at room temperature for one hour, and then 0.5 ml of methanol was added to the composition, and then 2.0 ml of 70% methanol was added to the composition. The absorbance measurement was conducted at 234 nm.

For `Cc1c(C)c2c(c(C)c1O)CCC(C)(C(=O)O)O2` (centres unmarked) [Torolox, torolox], it took 43.8 µM to reach half-maximal inhibition in test [1] (IC50). Also, the figures for the “Inhibition rate (%)” value in test [1] (specimen 25 μM), in test [1] (specimen 50 μM) and in test [1] (specimen 100 μM) were 19.1%, 48.2% and 94.9%, respectively.
For the compound tocotrienol, in test [1], the “DPPH inhibition, result in words” value is given as “approximately the same level as a-tocopherol” and inhibition was half-maximal at 55 µM (IC50). Also, in test [1] (specimen 25 μM), the “Inhibition rate (%)” value worked out at 16.3%. The “Inhibition rate (%)” value in test [1] (specimen 50 μM) worked out at 41%. Besides, the “Inhibition rate (%)” value in test [1] (specimen 100 μM) was 79.8%. In addition, in test [2], the “Linoleate peroxidation inhibition, result in words” value is “inhibition at the same level as a-tocopherol”; the “inhibition rate for linoleate hydroperoxide generation” value is “about 40%”; the “Inhibition rate (%)” value came out at 42.2%.
Regarding `COC1=C(OC)C(=O)C(C/C=C(\C)CC/C=C(\C)CC/C=C(\C)CC/C=C(\C)CC/C=C(\C)CC/C=C(\C)CC/C=C(\C)CC/C=C(\C)CC/C=C(\C)CCC=C(C)C)=C(C)C1=O` [Coenzyme Q10, coenzyme Q10], in test [1], the “DPPH inhibition, result in words” value is reported as “did not exhibit inhibition action”. Besides, the “Inhibition rate (%)” value in test [1] (specimen 25 μM), in test [1] (specimen 50 μM) and in test [1] (specimen 100 μM) was under 0% throughout. In addition, in test [2], the “Linoleate peroxidation inhibition, result in words” value is “did not exhibit inhibition action”. Besides, in test [2], the “inhibition rate for linoleate hydroperoxide generation” value is “no such inhibition”.
Consider `Cc1c(C)c2c(c(C)c1O)CC[C@@](C)(CCC[C@H](C)CCC[C@H](C)CCCC(C)C)O2` [α-Tocopherol, α-tocopherol], for which 51.1 µM corresponded to half-maximal inhibition in test [1] (IC50). In addition, the “Inhibition rate (%)” value in test [1] (specimen 25 μM) is reported as 15.2%; in test [1] (specimen 50 μM), 41%; in test [1] (specimen 100 μM), 87.6%; in test [2], 42.2%.

What is called IC50 is the concentration needed to halve the response being measured. A higher IC50 goes with a need for much substance.
